In patent publication US20240158446A1, “CYCLIC COMPOUND HAVING SELECTIVE INHIBITORY ACTION ON KRAS OVER HRAS AND NRAS” (CHUGAI SEIYAKU KABUSHIKI KAISHA, priority 2021, published 2024):
*1 amine or outer side, *2 acyl side, *3 side chain or, on linkers, in order; H or OH if unused. Where a SMILES comes first, the peptide text is derived from it. Bridges are numbered along the chain shown (N, C = ends). [ ]: non-standard residue; d: D form. The star is where a group is joined. ξ: configuration not given here. hPhe(3-Cl-4-CF3) = N[C@@H](CCc1ccc(C(F)(F)F)c(Cl)c1)C(=O)O; X26 = C=CCN([C@@H](Cc1ccccc1)C(=O)[*:2])[*:1]; NMeGly(cPent) = CN[C@H](C(=O)O)C1CCCC1; NMeNle(5-ene) = C=CCC[C@H](NC)C(=O)O; dIle(3ξ) = CCC(C)[C@@H](N)C(=O)O; NMeD = CN[C@@H](CC(=O)O)C(=O)O; NMeL = CN[C@@H](CC(C)C)C(=O)O; Morpholide = C1CN(*)CCO1; Ac5c = NC1(C(=O)O)CCCC1; Sar = CNCC(=O)O

Experiments:
[1] = biological target: GDP-bound KRAS wild-type protein (Homo sapiens, UniProt P01116); test: Binding to KRAS by surface plasmon resonance (SPR), Single Cycle Kinetics; settings: SPR Single Cycle Kinetics, GDP-bound KRAS wild-type protein, 1:1 binding model; read-out: KRAS KD
[2] = biological target: GDP-bound NRAS wild-type protein (Homo sapiens, UniProt P01111); test: Binding to NRAS by surface plasmon resonance (SPR), Single Cycle Kinetics; settings: SPR, GDP-bound NRAS wild-type protein vs GDP-bound KRAS wild-type protein
[3] = biological target: GDP-bound HRAS wild-type protein (Homo sapiens, UniProt P01112); test: Binding to HRAS by surface plasmon resonance (SPR), Single Cycle Kinetics; settings: SPR, GDP-bound HRAS wild-type protein vs GDP-bound KRAS wild-type protein
Sequence of GDP-bound HRAS wild-type protein (P01112 whole entry): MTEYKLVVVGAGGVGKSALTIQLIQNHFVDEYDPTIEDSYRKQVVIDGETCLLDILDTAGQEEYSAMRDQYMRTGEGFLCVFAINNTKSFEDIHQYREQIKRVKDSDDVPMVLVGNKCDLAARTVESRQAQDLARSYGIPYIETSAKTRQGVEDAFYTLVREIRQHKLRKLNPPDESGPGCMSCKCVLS

Sequence of GDP-bound KRAS wild-type protein (P01116 whole entry): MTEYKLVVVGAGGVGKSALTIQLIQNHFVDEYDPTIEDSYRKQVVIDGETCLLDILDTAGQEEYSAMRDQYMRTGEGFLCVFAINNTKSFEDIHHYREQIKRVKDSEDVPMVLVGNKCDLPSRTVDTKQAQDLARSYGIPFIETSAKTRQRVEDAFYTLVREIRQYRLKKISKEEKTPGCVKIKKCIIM
Sequence of GDP-bound NRAS wild-type protein (P01111 whole entry): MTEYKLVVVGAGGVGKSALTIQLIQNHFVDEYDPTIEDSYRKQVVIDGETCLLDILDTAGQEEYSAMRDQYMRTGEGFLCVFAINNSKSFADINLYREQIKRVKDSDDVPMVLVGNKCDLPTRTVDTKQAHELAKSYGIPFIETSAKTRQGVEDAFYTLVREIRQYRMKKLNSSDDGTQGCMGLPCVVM

SMILES | Kd [1] [nM] | NRAS/KRAS (ratio of KD value with respect to NRAS to KD value with respect to KRAS) [2] | HRAS/KRAS (ratio of KD value with respect to HRAS to KD value with respect to KRAS) [3]
CCC(CC)[C@@H]1NC(=O)[C@H](CC(C)C)N(C)C(=O)C[C@@H](C(=O)N2CCOCC2)N(C)C(=O)[C@H](C2CCCC2)N(C)C(=O)C2(CCCC2)NC(=O)[C@@H]2CCCN2C(=O)[C@H](CCc2cc(F)c(C(F)(F)F)c(F)c2)NC(=O)CN(C)C(=O)[C@H](Cc2ccc(C(F)(F)F)cc2)N2CCCC[C@@H](C2=O)N(C)C(=O)CN(C)C1=O [PP0597] | 0.33 | B (a compound having 3 or more and less than 10 is denoted as B) | B (a compound having 3 or more and less than 10 is denoted as B)
C=CCC[C@H]1C(=O)N(CC=C)[C@@H](Cc2ccccc2)C(=O)N(C)CC(=O)N[C@@H](CCc2ccc(C(F)(F)F)c(Cl)c2)C(=O)N2CCC[C@H]2C(=O)NC2(CCCC2)C(=O)N(C)[C@@H](C2CCCC2)C(=O)N(C)[C@H](C(=O)N2CCOCC2)CC(=O)N(C)[C@@H](CC(C)C)C(=O)N[C@H](C(C)CC)C(=O)N(C)CC(=O)N1C (stereo partly drawn) [PP0599] ([NMeL][dIle(3ξ)][Sar][NMeNle(5-ene)][X26][Sar][hPhe(3-Cl-4-CF3)]P[Ac5c][NMeGly(cPent)][NMeD]-Morpholide; lactam N-11) | 180 | C (A compound having a KD ratio of 0.1 or more and less than 3 is denoted as C) | B (a compound having 3 or more and less than 10 is denoted as B)
CC[C@H](C)[C@@H]1NC(=O)[C@H](CC(C)C)N(C)C(=O)C[C@@H](C(=O)N2CCOCC2)N(C)C(=O)[C@H](C2CCCC2)N(C)C(=O)C2(CCCC2)NC(=O)[C@@H]2CCCN2C(=O)[C@H](CCc2ccc(C(F)(F)F)c(Cl)c2)NC(=O)CN(C)C(=O)[C@H](Cc2ccc(Cl)cc2)N2C/C=C\CC[C@@H](C2=O)N(C)C(=O)CN(C)C1=O [PP0608] | 1.7 | C (A compound having a KD ratio of 0.1 or more and less than 3 is denoted as C) | B (a compound having 3 or more and less than 10 is denoted as B)
CC[C@H](C)[C@@H]1NC(=O)[C@H](CC(C)C)N(C)C(=O)C[C@@H](C(=O)N2CCOCC2)N(C)C(=O)[C@H](C2CCCC2)N(C)C(=O)C2(CCCC2)NC(=O)[C@@H]2CCCN2C(=O)[C@H](CCc2ccc(C(F)(F)F)c(Cl)c2)NC(=O)CN(C)C(=O)[C@H](Cc2ccc(OC(F)(F)F)cc2)N2C/C=C\CC[C@@H](C2=O)N(C)C(=O)CN(C)C1=O [PP0610] | 49 | B (a compound having 3 or more and less than 10 is denoted as B) | B (a compound having 3 or more and less than 10 is denoted as B)
CC[C@H](C)[C@@H]1NC(=O)[C@H](CC(C)C)N(C)C(=O)C[C@@H](C(=O)N2CCOCC2)N(C)C(=O)[C@H](C2CCCC2)N(C)C(=O)C2(CCCC2)NC(=O)[C@@H]2CCCN2C(=O)[C@H](CCc2ccc(C(F)(F)F)c(Cl)c2)NC(=O)CN(C)C(=O)[C@H](Cc2ccc(F)cc2)N2CCCCC[C@@H](C2=O)N(C)C(=O)CN(C)C1=O [PP0612] | 0.39 | B (a compound having 3 or more and less than 10 is denoted as B) | B (a compound having 3 or more and less than 10 is denoted as B)
CC[C@H](C)[C@@H]1NC(=O)[C@H](CC(C)C)N(C)C(=O)C[C@@H](C(=O)N2CCOCC2)N(C)C(=O)[C@H](C2CCCC2)N(C)C(=O)C2(CCCC2)NC(=O)[C@@H]2CCCN2C(=O)[C@H](CCc2ccc(C(F)(F)F)c(Cl)c2)NC(=O)CN(C)C(=O)[C@H](Cc2ccc(Cl)cc2)N2CCCCC[C@@H](C2=O)N(C)C(=O)CN(C)C1=O [PP0613] | 0.6 | B (a compound having 3 or more and less than 10 is denoted as B) | B (a compound having 3 or more and less than 10 is denoted as B)
CC[C@H](C)[C@@H]1NC(=O)[C@H](CC(C)C)N(C)C(=O)C[C@@H](C(=O)N2CCOCC2)N(C)C(=O)[C@H](C2CCCC2)N(C)C(=O)C2(CCCC2)NC(=O)[C@@H]2CCCN2C(=O)[C@H](CCc2ccc(C(F)(F)F)c(Cl)c2)NC(=O)CN(C)C(=O)[C@H](Cc2ccc(OC)cc2)N2CCCCC[C@@H](C2=O)N(C)C(=O)CN(C)C1=O [PP0614] | 1.1 | B (a compound having 3 or more and less than 10 is denoted as B) | B (a compound having 3 or more and less than 10 is denoted as B)
